For series [1], the system named is hormone refractory prostate cancer. Particulars: oral, combined with Etoposide, cited from earlier work.
The next series deals with prostate cancer. Particulars: given orally with escalating doses of docetaxel, cited from earlier work.
The conditions of series [2]: cited from earlier work.
Series [3] deals with hormone refractory prostate cancer. Particulars: oral, combined with vinblastine, cited from earlier work.
Series [4] has the same test system. Particulars: with Taxol, cited from earlier work.
In series [5] the test system is advanced metastatic prostate cancer. In words: Clinical cases: weekly high-dose intravenous estramustine phosphate.
Another series deals with tumor cell division. Particulars: tissue culture (Hartley-Asp, 1984); cited from earlier work.
Another series deals with tubulin. Particulars: in vitro (Dahllof 1993); cited from earlier work.
Series [6] relates to estramustine binding protein (EMBP). Particulars: cited from earlier work.
The conditions of series [7]: Gunnarsson, 1981, 1984; cited from earlier work.
For series [8] the following is noted: patients, single intravenous dose of 300 mg; previous data; cited from earlier work.
Series [9] in a line: Pharmacokinetics after a single high intravenous dose of estramustine phosphate in patients. Particulars: after a single high intravenous dose of estramustine phosphate at 1000 mg/m^2; FIG. 2.
Setting [10] is: 245 patients, 300-600 mg/day i.v. for 21 days then once or twice weekly for 2 months (Andersson et al).
The mark [11] stands for this setting: 1000 mg/m^2 i.v. central line, 30 minute infusion, three patients.
Setting [12] is: 1500 mg/m^2 i.v. central line, 30 minutes or 1 hour infusion, three patients.
Where [13] appears, read: 2000 mg/m^2 i.v. central line, 60 minute infusion, with anti-thrombotic agent, three patients.
Setting [14] is: 2500 mg/m^2 i.v. central line, 90 minute infusion, two patients.

With `C[C@]12CC[C@@H]3c4ccc(OC(=O)N(CCCl)CCCl)cc4CC[C@H]3[C@@H]1CC[C@@H]2OP(=O)(O)O` [estramustine phosphate], in series [1] (20 patients with soft tissue disease (3 patients)), the “complete responses (CR)” value is listed as 15%. For the same compound, the “partial responses (PR)” value in series [1] (20 patients with soft tissue disease (6 patients)) is reported as 30%. Moreover, the “patients with bone metastases improved” value in series [1] (32 patients with bone metastases (8 patients)) is given as 25%. Moreover, in series [1] (32 patients with bone metastases (12 patients)), the “patients with bone metastases stable” value is 38%. For the same compound, in [1] (overall, 13 men), the “men with a 75% decrease in prostate specific antigen” value is 25%. For the same compound, the “men with a 50% decrease in prostate specific antigen” value in [1] (overall, 28 men) is 54%. Besides, the “overall prostate specific antigen response rate” value in the series with prostate cancer was 62%. The “partial response in lymph nodes” value with prostate cancer (patients with bidimensionally measurable disease (3 patients)) was 43%. In addition, the “toxicity at 450 mg/day intravenous” value in [2] (450 mg/day i.v. (Nagel and Kölln 1977)) is “severe gastrointestinal problems”. Besides, the “patients with severe liver problems” value in series [2] (900 mg/day i.v. for 7-10 days followed by oral therapy, 11 of 18 patients (Maier 1990)) is 61%. Also, in [2] (setting [10]), the “patients exhibiting gastrointestinal problems” value was 17%, the “patients exhibiting liver disturbances” value was 9% and the patients exhibiting thrombophlebitis was 20%. In addition, in series [3] (4/37), the “incidence of significant cardiovascular toxicity” value is reported as 10.5%. For the same compound, in series [3] (among 88 patients), the “decrease in prostate specific antigen” value was 50-75%. Besides, the most frequent toxicity result in series [3] is recorded as “mild to moderate nausea”. Moreover, the “transient hepatic enzyme elevation of grade 1-3” value in [4] (6 patients) is listed as 35.2%. The edema in [4] (8 patients) is 47%. For the same compound, the “patients obtaining a PR” value in [4] (of six patients with measurable disease, PR of 2+, 6, and 8 months) is given as 3. In series [4] (seventeen patients), the “Grade 3-4 granulocytopenia and mucositis” value is on record as 2 patients; the “median duration of response” value is 7 months; the “nausea grade 1-2” value is on record as 70.5%; the “patients with PSA decreased by ≧50%” value is on record as 58.8%. In addition, in [5] (setting [11]), the PSA response entry was “several patients demonstrating PSA response” and the tolerability of infusions entry is reported as “well tolerated”. Moreover, in series [5] (setting [12]), the tolerability of infusions entry was “well tolerated” and the tumor response entry is listed as “one patient demonstrating a response in bulky tumor adenopathy”. In addition, in series [5] (setting [13]), the PSA response entry is “evidence of PSA response” and the tolerability of infusions entry was “well tolerated without serious toxicity”. Further, in series [5] (setting [14]), the “prostate specific antigen (PSA) response” value is reported as “both patients demonstrated a response (reduction)” and the tolerability of infusions result was “well tolerated without serious toxicity”.
`C[C@]12CC[C@@H]3c4ccc(OC(=O)N(CCCl)CCCl)cc4CC[C@H]3[C@@H]1CC[C@@H]2O` [estramustine]: in the series with tumor cell division, the anti-mitotic effect entry is given as “dose-dependent blocking of tumor cell division in the metaphase”. Moreover, the “effect on assembly of microtubules composed of only tubulin” value in the series on tubulin was “inhibited the assembly of microtubules”. Besides, in [6], the “binding affinity to EMBP-like protein” value is on record as “very high affinity”. Moreover, the “yield of estradiol and estrone, respectively, by cleavage of the carbamic ester” value in [7] is listed as “approximately 15%”.
As for `C[C@]12CC[C@@H]3c4ccc(OC(=O)N(CCCl)CCCl)cc4CC[C@H]3[C@@H]1CCC2=O` [estromustine], in series [8], the “elimination half lives of estromustine” value was 10 to 20 h. Further, the “binding affinity to EMBP-like protein” value in [6] is listed as “very high affinity”. The “yield of estradiol and estrone, respectively, by cleavage of the carbamic ester” value in series [7] was “approximately 15%”. The “half life of estromustine” value in series [9] was “approximately 100 hours”.
